Assay results: US3984547A, “Veterinary feedstuffs” (Bayer Aktiengesellschaft, priority 1971, dated 1976)
Values after ≈ are worked out from the molar mass of the structure shown. Like-named read-outs stand apart in the source and are kept apart here.

How the values were obtained:
[1] = test system: Streptococcus faecalis ATCC species; test: MIC, series dilution test (complete medium), Table 2; assay type: cell-based; conditions: Enterococcus faecalis, 37° C, 18, 24 and 48 h, read-out: Minimum inhibitory concentration (MIC)
Protocol: (§1) Minimum inhibitory concentration (MIC) in γ/ml of medium, measured by the series dilution test (complete medium), incubation temperatures: 37° C, determination of the MIC after 18, 24 and 48 hours.

[2] = test system: Streptococcus faecalis ATCC B. H.; test: as above; assay type: cell-based; conditions: Enterococcus faecalis, 37° C, 18, 24 and 48 h, read-out: Minimum inhibitory concentration (MIC)
Protocol: as §1

[3] = test system: Proteus vulgaris 3400; test: as above; assay type: cell-based; conditions: 37° C, 18, 24 and 48 h, read-out: Minimum inhibitory concentration (MIC)
Protocol: as §1

[4] = test system: Salmonella paratyphii BB II; test: as above; assay type: cell-based; conditions: 37° C, 18, 24 and 48 h, read-out: Minimum inhibitory concentration (MIC)
Protocol: as §1

[5] = test system: Streptococcus faecalis ATCC 8698; test: as above; assay type: cell-based; conditions: Enterococcus faecalis, ATCC8698, 37° C, 18, 24 and 48 h, read-out: Minimum inhibitory concentration (MIC)
Protocol: as §1

[6] = test system: Escherichia coli 183/58; test: as above; assay type: cell-based; conditions: 37° C, 18, 24 and 48 h, read-out: Minimum inhibitory concentration (MIC)
Protocol: as §1

[7] = test system: Streptococcus faecalis ATCC 9700; test: as above; assay type: cell-based; conditions: Enterococcus faecalis, ATCC9700, 37° C, 18, 24 and 48 h, read-out: Minimum inhibitory concentration (MIC)
Protocol: as §1

[8] = test system: Escherichia coli C 165; test: as above; assay type: cell-based; conditions: C165, 37° C, 18, 24 and 48 h, read-out: Minimum inhibitory concentration (MIC)
Protocol: as §1

[9] = test system: Pseudomonas aeruginosa B; test: as above; assay type: cell-based; conditions: 37° C, 18, 24 and 48 h, read-out: Minimum inhibitory concentration (MIC)
Protocol: as §1

[10] = test system: Escherichia coli A 261; test: as above; assay type: cell-based; conditions: A261, 37° C, 18, 24 and 48 h, read-out: Minimum inhibitory concentration (MIC)
Protocol: as §1

[11] = test system: Mycobacterium tuberculosis H 37 RV; test: as above; assay type: cell-based; conditions: H37RV, 37° C, 18, 24 and 48 h, read-out: Minimum inhibitory concentration (MIC)
Protocol: as §1

[12] = test system: Mycoplasma gallisepticum; test: as above; assay type: cell-based; conditions: Mycoplasmoides gallisepticum, 37° C, 18, 24 and 48 h, read-out: Minimum inhibitory concentration (MIC)
Protocol: as §1

[13] = test system: Klebsiella K 10; test: as above; assay type: cell-based; conditions: K10, 37° C, 18, 24 and 48 h, read-out: Minimum inhibitory concentration (MIC)
Protocol: as §1

[14] = test system: Escherichia coli 2; test: as above; assay type: cell-based; conditions: 37° C, 18, 24 and 48 h, read-out: Minimum inhibitory concentration (MIC)
Protocol: as §1

[15] = test system: Klebsiella ATCC 10031; test: as above; assay type: cell-based; conditions: ATCC10031, 37° C, 18, 24 and 48 h, read-out: Minimum inhibitory concentration (MIC)
Protocol: as §1

[16] = test system: Streptococcus faecalis ATCC Blaschke; test: as above; assay type: cell-based; conditions: Enterococcus faecalis, 37° C, 18, 24 and 48 h, read-out: Minimum inhibitory concentration (MIC)
Protocol: as §1

[17] = test system: Streptococcus faecalis ATCC durans; test: as above; assay type: cell-based; conditions: Enterococcus faecalis, 37° C, 18, 24 and 48 h, read-out: Minimum inhibitory concentration (MIC)
Protocol: as §1

[18] = test system: Streptococcus faecalis ATCC 8580; test: as above; assay type: cell-based; conditions: Enterococcus faecalis, ATCC8580, 37° C, 18, 24 and 48 h, read-out: Minimum inhibitory concentration (MIC)
Protocol: as §1

[19] = test system: Streptococcus faecalis ATCC 8564; test: as above; assay type: cell-based; conditions: Enterococcus faecalis, ATCC8564, 37° C, 18, 24 and 48 h, read-out: Minimum inhibitory concentration (MIC)
Protocol: as §1

[20] = test system: Staphylococcus aureus BRL; test: as above; assay type: cell-based; conditions: 37° C, 18, 24 and 48 h, read-out: Minimum inhibitory concentration (MIC)
Protocol: as §1

[21] = test system: Proteus mirabilis G; test: as above; assay type: cell-based; conditions: 37° C, 18, 24 and 48 h, read-out: Minimum inhibitory concentration (MIC)
Protocol: as §1

[22] = test system: Streptococcus faecalis ATCC liquef.; test: as above; assay type: cell-based; conditions: Enterococcus faecalis, 37° C, 18, 24 and 48 h, read-out: Minimum inhibitory concentration (MIC)
Protocol: as §1

[23] = test system: Staphylococcus aureus 7705; test: as above; assay type: cell-based; conditions: 37° C, 18, 24 and 48 h, read-out: Minimum inhibitory concentration (MIC)
Protocol: as §1

[24] = test system: Streptococcus faecalis ATCC 13; test: as above; assay type: cell-based; conditions: Enterococcus faecalis, ATCC13, 37° C, 18, 24 and 48 h, read-out: Minimum inhibitory concentration (MIC)
Protocol: as §1

[25] = test system: Streptococcus faecalis ATCC 8711; test: as above; assay type: cell-based; conditions: Enterococcus faecalis, ATCC8711, 37° C, 18, 24 and 48 h, read-out: Minimum inhibitory concentration (MIC)
Protocol: as §1

[26] = test system: Pseudomonas aeruginosa W; test: as above; assay type: cell-based; conditions: 37° C, 18, 24 and 48 h, read-out: Minimum inhibitory concentration (MIC)
Protocol: as §1

[27] = test system: Proteus vulgaris 1017; test: as above; assay type: cell-based; conditions: 37° C, 18, 24 and 48 h, read-out: Minimum inhibitory concentration (MIC)
Protocol: as §1

[28] = test system: Escherichia coli 14; test: as above; assay type: cell-based; conditions: 37° C, 18, 24 and 48 h, read-out: Minimum inhibitory concentration (MIC)
Protocol: as §1

[29] = test system: Klebsiella 63; test: as above; assay type: cell-based; conditions: 37° C, 18, 24 and 48 h, read-out: Minimum inhibitory concentration (MIC)
Protocol: as §1

[30] = test system: Neisseria catharalis N 1/41; test: as above; assay type: cell-based; conditions: N1/41, 37° C, 18, 24 and 48 h, read-out: Minimum inhibitory concentration (MIC)
Protocol: as §1

[31] = test system: Streptococcus faecalis ATCC 8699; test: as above; assay type: cell-based; conditions: Enterococcus faecalis, ATCC8699, 37° C, 18, 24 and 48 h, read-out: Minimum inhibitory concentration (MIC)
Protocol: as §1

[32] = test system: Pseudomonas aeruginosa M; test: as above; assay type: cell-based; conditions: 37° C, 18, 24 and 48 h, read-out: Minimum inhibitory concentration (MIC)
Protocol: as §1

[33] = test system: Staphylococcus aureus 133; test: as above; assay type: cell-based; conditions: 37° C, 18, 24 and 48 h, read-out: Minimum inhibitory concentration (MIC)
Protocol: as §1

[34] = test system: Corynebacterium diphteriae gravis; test: as above; assay type: cell-based; conditions: 37° C, 18, 24 and 48 h, read-out: Minimum inhibitory concentration (MIC)
Protocol: as §1

[35] = test system: Escherichia coli 55 B 5; test: as above; assay type: cell-based; conditions: 55B5, 37° C, 18, 24 and 48 h, read-out: Minimum inhibitory concentration (MIC)
Protocol: as §1

[36] = test system: Proteus mirabilis 2935; test: as above; assay type: cell-based; conditions: 37° C, 18, 24 and 48 h, read-out: Minimum inhibitory concentration (MIC)
Protocol: as §1

[37] = test system: Mycoplasma gallisepticum; test: MIC, series dilution test, measured in a PPLO medium, Table 2; assay type: cell-based; conditions: Mycoplasmoides gallisepticum, 37° C, 18, 24 and 48 h, read-out: Minimum inhibitory concentration (MIC)
Protocol: as §1
(§2) *)measured in a PPLO medium

[38] = test system: Mycoplasma granularum; test: as above; assay type: cell-based; conditions: Acholeplasma granularum, 37° C, 18, 24 and 48 h, read-out: Minimum inhibitory concentration (MIC)
Protocol: as §1, §2

[39] = test system: Escherichia coli C 165; test: ED100 in mice after intraperitoneal infection, Table 3; assay type: in vivo; conditions: read-out: effective 100% dose (ED100)
Protocol: (§3) In animal experiments on mice, the effective 100% dose (ED100) in mg/Kg was determined for certain compounds of the invention after intraperitoneal infection and subcutaneous (s.c.) or oral (p.o.) administration of the preparation.

[40] = test system: Staphylococcus aureus 133; test: as above; assay type: in vivo; conditions: read-out: effective 100% dose (ED100)
Protocol: as §3

[41] = test system: Streptococcus pyogenes W; test: MIC in vitro, plate test (agar), Table 1; assay type: cell-based; conditions: about 37° C, readings 24 and 48 h
Protocol: (§4) The minimum inhibitory concentrations in vitro for some of the new compounds shown in Table 1 (MIC) were determined by the plate test in an agar medium of the following composition: |proteose peptone 10.0 g per liter |5.1 × 10^3 germs were inoculated per plate. […]. Readings were taken after 24 and 48 hours, and the incubation temperature was about 37° C.

[42] = test system: Escherichia coli C 165; test: MIC in vitro, plate test (agar), Table 1; assay type: cell-based; conditions: C165, about 37° C, readings 24 and 48 h
Protocol: as §4

[43] = test system: Escherichia coli A 261; test: MIC in vitro, plate test (agar), Table 1; assay type: cell-based; conditions: A261, about 37° C, readings 24 and 48 h
Protocol: as §4

[44] = test system: Kletosiella pneumonia 8085; test: MIC in vitro, plate test (agar), Table 1; assay type: cell-based; conditions: about 37° C, readings 24 and 48 h
Protocol: as §4

[45] = test system: Klebsiella pneumonia 63; test: MIC in vitro, plate test (agar), Table 1; assay type: cell-based; conditions: Klebsiella pneumoniae, about 37° C, readings 24 and 48 h
Protocol: as §4

[46] = test system: Staphylococcus aureus 133; test: MIC in vitro, plate test (agar), Table 1; assay type: cell-based; conditions: about 37° C, readings 24 and 48 h
Protocol: as §4

[47] = test system: Pseudomonas aeruginosa Walter; test: MIC in vitro, plate test (agar), Table 1; assay type: cell-based; conditions: about 37° C, readings 24 and 48 h
Protocol: as §4

[48] = test system: Pseudomonas aeruginosa Bonn; test: MIC in vitro, plate test (agar), Table 1; assay type: cell-based; conditions: about 37° C, readings 24 and 48 h
Protocol: as §4

[49] = test system: Proteus vulgaris species; test: MIC in vitro, plate test (agar), Table 1; assay type: cell-based; conditions: about 37° C, readings 24 and 48 h
Protocol: as §4

COC(=O)NN=Cc1c(C(=O)O)[n+]([O-])c2ccccc2[n+]1[O-] [Example 13]
MIC [1]: 100 µg/mL (≈ 327 µM) | MIC [2]: 100 µg/mL (≈ 327 µM) | MIC [3]: 50 µg/mL (≈ 163 µM) | MIC [4]: 12 µg/mL (≈ 39.2 µM) | MIC [5]: 100 µg/mL (≈ 327 µM) | MIC [6]: 6 to 12 µg/mL (≈ 19.6 to 39.2 µM) | MIC [7]: 50 µg/mL (≈ 163 µM) | MIC [8]: 50 to 100 µg/mL (≈ 163 to 327 µM) | MIC [9]: 25 µg/mL (≈ 81.6 µM) | MIC [10]: 25 to 50 µg/mL (≈ 81.6 to 163 µM) | MIC [11]: 40 µg/mL (≈ 131 µM) | MIC [12]: 6 µg/mL (≈ 19.6 µM) | MIC [13]: 50 µg/mL (≈ 163 µM) | MIC [14]: 25 to 50 µg/mL (≈ 81.6 to 163 µM) | MIC [15]: 1 to 2 µg/mL (≈ 3.27 to 6.53 µM) | MIC [16]: 6 to 25 µg/mL (≈ 19.6 to 81.6 µM) | MIC [17]: 25 µg/mL (≈ 81.6 µM) | MIC [18]: 50 µg/mL (≈ 163 µM) | MIC [19]: 100 µg/mL (≈ 327 µM) | MIC [20]: 12 µg/mL (≈ 39.2 µM) | MIC [21]: 12 µg/mL (≈ 39.2 µM) | MIC [22]: 50 µg/mL (≈ 163 µM) | MIC [23]: 12 µg/mL (≈ 39.2 µM) | MIC [24]: 25 µg/mL (≈ 81.6 µM) | MIC [25]: 50 µg/mL (≈ 163 µM) | MIC [26]: 400 µg/mL (≈ 1310 µM) | MIC [27]: 17 µg/mL (≈ 55.5 µM) | MIC [28]: 12 to 25 µg/mL (≈ 39.2 to 81.6 µM) | MIC [29]: 50 µg/mL (≈ 163 µM) | MIC [30]: 6 µg/mL (≈ 19.6 µM) | MIC [31]: 100 µg/mL (≈ 327 µM) | MIC [32]: 25 µg/mL (≈ 81.6 µM) | MIC [33]: 1 µg/mL (≈ 3.27 µM) | MIC [34]: 5 to 10 µg/mL (≈ 16.3 to 32.7 µM) | MIC [35]: 3 to 6 µg/mL (≈ 9.8 to 19.6 µM) | MIC [36]: 12 µg/mL (≈ 39.2 µM) | MIC [37]: 6 µg/mL (≈ 19.6 µM) | MIC [38]: 3 µg/mL (≈ 9.8 µM) | ED100 ([39]; C165, oral (p.c. [sic])): 25 mg/kg | ED100 ([39]; C165, sc, s.c.): 25 mg/kg | ED100 ([40]; Staphylococcus aureus, 133, oral (p.c. [sic])): 50 mg/kg | ED100 ([40]; Staphylococcus aureus, 133, sc, s.c.): 25 mg/kg | MIC [41]: 100 µg/mL (≈ 327 µM) | MIC [42]: 50 µg/mL (≈ 163 µM) | MIC [43]: 20 µg/mL (≈ 65.3 µM) | MIC [44]: 20 µg/mL (≈ 65.3 µM) | MIC [45]: 100 µg/mL (≈ 327 µM) | MIC [46]: 10 µg/mL (≈ 32.7 µM) | MIC [47]: 100 µg/mL (≈ 327 µM) | MIC [48]: 100 µg/mL (≈ 327 µM) | MIC [49]: 10 µg/mL (≈ 32.7 µM)
